Assay results published in ChEMBL document CHEMBL1201862, “PubChem BioAssay data set” (2004).
“And” between values parts separate entries of the source, which are not always exact repeats. Equal entries are not always repeated.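 Exposure lasted 48 hours, with cells grown in 96-well plates and compounds tested at five concentrations. GI50 marks 50% less growth.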 The source made the active and inactive calls. Rule as the data show it: active = GI50 up to about 1.1 µM and inactive = higher.

Experiments:
Assay in all cases: NCI anticancer screen, dose series, 48 h
786-0 = test system: 786-0
CAKI-1 = test system: CAKI-1
CCRF-CEM = test system: CCRF-CEM
HCT-116 = test system: HCT-116
HL-60 = test system: HL-60
HT-29 = test system: HT-29
IGROV-1 = test system: IGROV-1
K562 = test system: K562
MOLT-4 = test system: MOLT-4
NCI-H226 = test system: NCI-H226
OVCAR-3 = test system: OVCAR-3
OVCAR-4 = test system: OVCAR-4
OVCAR-8 = test system: OVCAR-8
RXF 393 = test system: RXF 393
SF-295 = test system: SF-295
SK-MEL-28 = test system: SK-MEL-28
SNB-19 = test system: SNB-19
SR = test system: SR
NCI-H23 = test system: NCI-H23
SK-MEL-5 = test system: SK-MEL-5

Measured: GI50

NC(=O)c1ncn(C2OC(CO)C(O)C2O)c1O (configuration not stated)
inactive: 786-0 > 100 µM | CAKI-1 83.4 µM | CCRF-CEM > 100 µM | HCT-116 72.6 µM | HL-60 50.2 µM | HT-29 4.69 µM | IGROV-1 > 100 µM | K562 > 100 µM | MOLT-4 72.1 µM | NCI-H226 54.6 µM | OVCAR-3 96.8 µM | OVCAR-4 > 100 µM | OVCAR-8 > 100 µM | RXF 393 > 100 µM | SF-295 > 100 µM | SK-MEL-28 > 100 µM | SNB-19 > 100 µM | SR 69 µM

Cc1ccccc1Nc1nc2ccccc2nc1NS(=O)(=O)c1ccccc1
inactive: 786-0 > 100 µM | CAKI-1 > 100 µM | CCRF-CEM > 100 µM | HCT-116 > 100 µM | HL-60 > 100 µM | HT-29 > 100 µM | IGROV-1 > 100 µM | K562 > 100 µM | MOLT-4 > 100 µM | NCI-H226 > 100 µM | NCI-H23 43.1 µM | OVCAR-3 > 100 µM | OVCAR-4 38.5 µM | OVCAR-8 > 100 µM | RXF 393 > 100 µM | SF-295 67.1 µM | SK-MEL-28 > 100 µM | SK-MEL-5 > 100 µM | SNB-19 96.8 µM | SR > 100 µM

CC1(C)C(c2ccccc2)=[N+]([O-])C(C)(C)N1O
inactive: 786-0 > 10 µM | CAKI-1 > 10 µM | CCRF-CEM > 10 µM | HCT-116 > 10 µM | HL-60 > 10 µM | HT-29 > 10 µM | IGROV-1 > 10 µM | MOLT-4 > 10 µM | NCI-H226 > 10 µM | NCI-H23 > 10 µM | OVCAR-3 > 10 µM | OVCAR-4 > 10 µM | OVCAR-8 > 10 µM | RXF 393 > 10 µM | SF-295 > 10 µM | SK-MEL-28 > 10 µM | SK-MEL-5 > 10 µM | SNB-19 > 10 µM | SR > 10 µM

COC(=O)c1cccc(OC)c1C#Cc1c(OC)cccc1OC
inactive: 786-0 > 100 µM | CAKI-1 > 100 µM | CCRF-CEM > 100 µM | HCT-116 > 100 µM | HL-60 > 100 µM | HT-29 > 100 µM | IGROV-1 > 100 µM | K562 > 100 µM | MOLT-4 > 100 µM | NCI-H226 > 100 µM | NCI-H23 > 100 µM | OVCAR-3 > 100 µM | OVCAR-4 54.1 µM | OVCAR-8 > 100 µM | RXF 393 > 100 µM | SF-295 > 100 µM | SK-MEL-28 > 100 µM | SK-MEL-5 > 100 µM | SNB-19 > 100 µM | SR > 100 µM

N#Cc1c(-c2ccccc2)c(C#N)c(=S)n(C2OC(CO)C(O)C(O)C2O)c1N (configuration not stated)
inactive: 786-0 > 100 µM | CAKI-1 92.7 µM | CCRF-CEM > 100 µM and 50.9 µM | HCT-116 > 100 µM | HL-60 > 100 µM | HT-29 > 100 µM | K562 > 100 µM and 59.4 µM | NCI-H226 > 100 µM | NCI-H23 > 100 µM | OVCAR-3 > 100 µM | OVCAR-4 > 100 µM | OVCAR-8 > 100 µM | RXF 393 > 100 µM | SF-295 > 100 µM | SK-MEL-28 > 100 µM | SK-MEL-5 71.6 µM | SNB-19 > 100 µM | SR > 100 µM

O=C(N(C1=CCCC1)N(c1ccccc1)c1ccccc1)C(F)(F)F
inactive: 786-0 27.7 µM | CAKI-1 20.2 µM | CCRF-CEM 23.4 µM | HCT-116 21.5 µM | HL-60 20.3 µM | HT-29 17.3 µM | K562 19.5 µM | MOLT-4 14 µM | NCI-H226 19.7 µM | NCI-H23 30.4 µM | OVCAR-3 18.9 µM | OVCAR-4 25.4 µM | OVCAR-8 29.9 µM | RXF 393 17 µM | SF-295 22.6 µM | SK-MEL-28 28.4 µM | SK-MEL-5 16.3 µM | SNB-19 30 µM | SR 31 µM

Cc1nc2c3c(ncn2n1)Oc1c(c(-c2ccccc2)nn1-c1ccccc1)C3c1ccc(Cl)cc1 (configuration not stated)
inactive: 786-0 39 µM | CAKI-1 > 100 µM | CCRF-CEM > 10 µM | HCT-116 > 100 µM | HL-60 > 10 µM | HT-29 > 100 µM | IGROV-1 > 100 µM | K562 > 100 µM | MOLT-4 > 100 µM | NCI-H226 > 100 µM | NCI-H23 > 100 µM | OVCAR-3 > 100 µM | OVCAR-4 22.1 µM | OVCAR-8 56.9 µM | RXF 393 72.3 µM | SF-295 50.8 µM | SK-MEL-28 > 100 µM | SNB-19 34.8 µM | SR 45.1 µM

C=C(Br)C(Cl)(CBr)CCC(Br)C(C)(C)Cl (configuration not stated)
inactive: 786-0 5.36 µM | CAKI-1 > 10 µM | CCRF-CEM > 10 µM | HCT-116 > 10 µM | HL-60 > 10 µM | HT-29 > 10 µM | IGROV-1 > 10 µM | K562 > 10 µM | MOLT-4 > 10 µM | NCI-H226 > 10 µM | NCI-H23 > 10 µM | OVCAR-3 > 10 µM | OVCAR-4 > 10 µM | OVCAR-8 > 10 µM | RXF 393 > 10 µM | SF-295 > 10 µM | SK-MEL-28 > 10 µM | SK-MEL-5 > 10 µM | SNB-19 > 10 µM | SR > 10 µM

CC(=O)C1=C(c2ccccc2)N(C2OC(CO)C(O)C(O)C2O)C(S)=C(C#N)C1c1ccc(Cl)cc1 (configuration not stated)
inactive: 786-0 27 µM | CAKI-1 29 µM | CCRF-CEM 34.8 µM | HCT-116 16 µM | HL-60 42.4 µM | HT-29 31 µM | IGROV-1 39.7 µM | K562 32.7 µM | MOLT-4 15.8 µM | NCI-H226 20.7 µM | NCI-H23 36 µM | OVCAR-3 21.6 µM | OVCAR-4 29.6 µM | OVCAR-8 33.5 µM | RXF 393 28.6 µM | SF-295 35.9 µM | SK-MEL-28 20.7 µM | SK-MEL-5 19.6 µM | SNB-19 34.9 µM | SR 29.1 µM

COc1ccc(-c2c3ccccc3c(-c3ccc(OCCBr)cc3)c3ccccc23)cc1
inactive: 786-0 > 100 µM | CAKI-1 > 100 µM | CCRF-CEM > 100 µM | HCT-116 > 100 µM | HL-60 > 100 µM | HT-29 > 100 µM | IGROV-1 > 100 µM | MOLT-4 > 100 µM | NCI-H226 > 100 µM | NCI-H23 > 100 µM | OVCAR-3 > 100 µM | OVCAR-4 > 100 µM | OVCAR-8 > 100 µM | RXF 393 > 100 µM | SF-295 > 100 µM | SK-MEL-28 > 100 µM | SK-MEL-5 > 100 µM | SNB-19 > 100 µM | SR > 100 µM
